Data on one compound can be found in patent EP4512806A1, “MOLECULAR GLUE DEGRADERS AND USES THEREOF” (Mablink Bioscience, priority 2023, dated 2025).

A word on the IC50: it is the point on the concentration scale where inhibition reaches its midpoint.

Data set [1] concerns JIMT-1 cells. The data set is described as follows: Cell cycle arrest assessment (propidium iodide, flow cytometry). The format is cell-based, human. The protocol: 1×10^6 JIMT-1 cells were plated in 3mL of DMEM/FBS 90:10 (v/v) in 6-well plates and incubated overnight. Cells were treated with the compound 2384 of the invention or with CR8 for 24h. Cells were then harvested and washed three times with PBS. Cells were suspended into 300µL of propidium iodide working solution (0.05mg/mL) and incubated for 45 minutes at 4°C in the dark. Analysis was performed using a BD Fortessa flow cytometer controlled by BD FACSDiva software (BD Biosciences) and data were analyzed using FlowJo software (BD Bioscience).

Data set [2] relates to NCI-N87. The data set is described as follows: In vitro cytotoxicity assay (MTT). The settings on record: 6 days incubation. The data set is classed as cell-based, human. An excerpt: (§1) Human cancer cell lines used in the present project were purchased from either the American Type Culture Collection (ATCC), The Leibniz Institute DSMZ German Collection of Microorganisms and Cell Cultures GmbH (DSMZ) or the European Collection of Authenticated Cell Cultures (ECACC). For use in experiments, cells were cultivated following good and established cell culture practices, following instructions from the original ATCC/DSMZ/ECACC supplier for cell culture media & supplement, cryopreservation, and subculturing procedures. Cells were incubated under a 5% CO2 atmosphere at 37°C for no longer than 2 months.
(§2) In vitro cytotoxicity of compounds of the disclosure was assessed on several cancerous human cell lines. Cells were plated in 96-well plates at an appropriate density depending on the cell line (between 1000 and 10 000 cells/well in 100µL of appropriate culture media) and incubated at 37°C for 24 hours. Serial dilutions of the tested compound previously dissolved in culture media (50µL) were added, and incubation was carried at 37°C out for 6 days. MTT (5mg/mL in PBS, 20µL, Sigma-Aldrich) was added into the wells, and incubation was continued for 1 to 4 hours at 37°C. Culture media was then carefully removed, and well content was homogeneously dissolved with acidified isopropanol. Absorbance values were measured on a microplate reader using a wavelength of 570 nm (with a reference wavelength of 690 nm). The IC50 concentration values compared to untreated control cells were determined using inhibition dose response curve fitting (GraphPad Prism 9). Exatecan mesylate (cat#HY-13631A) and CR8 (CAS# 294646-77-8; cat#HY-18340) were purchased from MedChemExpress (China).

Data set [3] deals with MDA-MB-453. The data set is described as follows: In vitro cytotoxicity assay (MTT). The format is cell-based, human. To be noted: 6 days incubation.
Description: as §1, §2

For data set [4], the system named is MDA-MB-231. The data set is described as follows: In vitro cytotoxicity assay (MTT). The data set is classed as cell-based, human. To be noted: 6 days incubation.
Description: as §1, §2

In data set [5] the test system is BT-474. The data set is described as follows: In vitro cytotoxicity assay (MTT). The format is cell-based, human. The settings on record: 6 days incubation.
Description: as §1, §2

For data set [6], the system named is SKBR-3. The data set is described as follows: In vitro cytotoxicity assay (MTT). The data set is classed as cell-based, human. To be noted: 6 days incubation.
Description: as §1, §2

Data set [7] has as its system JIMT-1. The data set is described as follows: In vitro cytotoxicity assay (MTT). The data set is classed as cell-based, human. The settings on record: 6 days incubation.
Description: as §1, §2

The subject of data set [8] is panel of human cancer cell lines. The data set is described as follows: In vitro cytotoxicity assay (MTT), panel of cell lines. The format is cell-based. The settings on record: panel of human cancer cell lines, in words.
Description: as §1, §2

For data set [9], the target named is T1, CycK (Homo sapiens, UniProt O75909).
T1 construct: endogenous in cells; host or cells: JIMT-1
The data set is described as follows: CycK protein quantification by Western Blot in JIMT-1 cells. The format is cell-based. To be noted: 2h treatment, 10nM. The protocol: 1×10^6 JIMT-1 cells were plated in 3mL of DMEM/FBS 90:10 (v/v) in 6-well plates and incubated overnight. Cells were treated with the compound 2384 of the invention with or without the proteasome inhibitor MG-132 (MedChemExpress, Cat HY-13259) for 2h. Cells were harvested, and protein were extracted using complete RIPA buffer (RIPA buffer, 1 mM DTT, 1M NaF, 100 mM sodium orthovanadate, phosphatase inhibitor buffer and protease inhibitors) for 1 hour on ice. Lysate were centrifuged 15min at 12 000g at 4°C. and proteins were mixed with 4x Laemmli Sample Buffer (Bio-Rad), heated at 95 °C for 5 mins and separated by SDS PAGE (PROTEAN TGX Stain-Free Gels, Bio-Rad). Proteins were then transferred onto PVDF membrane (iBlot®2 PVDF stacks, Invitrogen) using the iBlot2 device (Invitrogen) and blocked with TBS buffer (Intercept® Blocking Buffer, LI-COR Biosciences). Primary antibodies were incubated overnight at 4°C and secondary antibodies (IRDye Infrared Dyes from LI-COR Biosciences) 1 hour at room temperature. Used primary antibody were: anti-CycK (cat#A301-939A, Bethyl Laboratories, dil. 1:1000) and anti-β-actin (cat#A5441, Sigma-Aldrich, dil. 1:5000). Membranes were scanned using a c500 Imaging System (Azure Biosystems) and densitometric quantification were performed using imaged software. Protein levels were normalized against β-actin.
Background: Immunoblotting shows a protein as a band on a membrane.

T1 sequence (O75909 whole entry): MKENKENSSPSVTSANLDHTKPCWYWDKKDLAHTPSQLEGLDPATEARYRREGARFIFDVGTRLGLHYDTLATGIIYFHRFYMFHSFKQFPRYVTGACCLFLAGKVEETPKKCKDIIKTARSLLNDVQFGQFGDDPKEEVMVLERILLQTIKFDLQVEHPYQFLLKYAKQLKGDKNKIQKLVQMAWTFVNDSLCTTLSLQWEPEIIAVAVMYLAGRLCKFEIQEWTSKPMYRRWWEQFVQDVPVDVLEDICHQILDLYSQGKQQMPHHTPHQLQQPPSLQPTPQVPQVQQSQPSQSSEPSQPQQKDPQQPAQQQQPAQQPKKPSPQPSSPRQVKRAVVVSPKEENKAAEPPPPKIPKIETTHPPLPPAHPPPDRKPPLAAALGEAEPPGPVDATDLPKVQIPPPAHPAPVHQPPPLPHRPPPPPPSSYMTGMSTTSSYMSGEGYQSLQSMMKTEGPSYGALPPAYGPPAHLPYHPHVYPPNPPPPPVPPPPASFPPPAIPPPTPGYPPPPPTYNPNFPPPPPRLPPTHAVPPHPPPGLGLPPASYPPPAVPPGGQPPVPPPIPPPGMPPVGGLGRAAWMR
T1 sequence (Q9NYV4 whole entry partner): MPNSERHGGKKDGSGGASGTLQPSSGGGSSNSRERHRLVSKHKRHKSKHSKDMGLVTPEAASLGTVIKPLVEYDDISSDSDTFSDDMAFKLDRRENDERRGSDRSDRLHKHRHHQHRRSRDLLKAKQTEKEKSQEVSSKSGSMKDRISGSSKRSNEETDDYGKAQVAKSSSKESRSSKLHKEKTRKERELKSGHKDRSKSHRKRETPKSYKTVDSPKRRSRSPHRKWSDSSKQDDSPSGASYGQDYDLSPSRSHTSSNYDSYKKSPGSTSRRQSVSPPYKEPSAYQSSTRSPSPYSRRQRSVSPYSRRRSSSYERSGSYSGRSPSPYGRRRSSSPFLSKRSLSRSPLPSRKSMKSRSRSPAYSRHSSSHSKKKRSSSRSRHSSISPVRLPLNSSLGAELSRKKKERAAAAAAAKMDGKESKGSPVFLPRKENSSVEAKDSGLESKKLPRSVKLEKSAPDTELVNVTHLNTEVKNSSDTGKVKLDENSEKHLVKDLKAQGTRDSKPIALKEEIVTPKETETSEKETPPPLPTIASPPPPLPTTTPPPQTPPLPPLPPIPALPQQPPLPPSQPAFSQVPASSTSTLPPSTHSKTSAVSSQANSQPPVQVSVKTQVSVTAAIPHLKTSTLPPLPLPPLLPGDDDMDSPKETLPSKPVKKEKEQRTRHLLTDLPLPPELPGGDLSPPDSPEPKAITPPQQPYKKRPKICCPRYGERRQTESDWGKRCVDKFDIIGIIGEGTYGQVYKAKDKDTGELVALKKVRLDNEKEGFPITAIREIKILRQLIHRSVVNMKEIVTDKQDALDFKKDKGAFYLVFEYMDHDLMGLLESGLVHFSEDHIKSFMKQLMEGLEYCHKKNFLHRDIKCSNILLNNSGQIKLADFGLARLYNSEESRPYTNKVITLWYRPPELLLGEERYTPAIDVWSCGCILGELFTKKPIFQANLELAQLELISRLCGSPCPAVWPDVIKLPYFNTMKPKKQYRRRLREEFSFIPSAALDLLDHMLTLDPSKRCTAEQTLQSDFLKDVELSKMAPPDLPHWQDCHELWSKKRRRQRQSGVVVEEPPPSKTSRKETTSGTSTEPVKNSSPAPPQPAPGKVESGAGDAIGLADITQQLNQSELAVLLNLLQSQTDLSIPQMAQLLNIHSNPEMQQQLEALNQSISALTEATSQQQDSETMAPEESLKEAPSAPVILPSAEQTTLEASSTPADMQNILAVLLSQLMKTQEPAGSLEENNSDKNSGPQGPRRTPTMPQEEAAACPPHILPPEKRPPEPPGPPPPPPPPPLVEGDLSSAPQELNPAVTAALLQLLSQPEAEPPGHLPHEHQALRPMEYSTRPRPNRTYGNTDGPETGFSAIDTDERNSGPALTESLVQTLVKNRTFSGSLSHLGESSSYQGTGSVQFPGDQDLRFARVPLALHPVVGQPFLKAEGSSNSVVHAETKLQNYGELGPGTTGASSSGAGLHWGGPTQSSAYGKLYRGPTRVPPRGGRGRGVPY
T1 sequence (Q16531 whole entry partner): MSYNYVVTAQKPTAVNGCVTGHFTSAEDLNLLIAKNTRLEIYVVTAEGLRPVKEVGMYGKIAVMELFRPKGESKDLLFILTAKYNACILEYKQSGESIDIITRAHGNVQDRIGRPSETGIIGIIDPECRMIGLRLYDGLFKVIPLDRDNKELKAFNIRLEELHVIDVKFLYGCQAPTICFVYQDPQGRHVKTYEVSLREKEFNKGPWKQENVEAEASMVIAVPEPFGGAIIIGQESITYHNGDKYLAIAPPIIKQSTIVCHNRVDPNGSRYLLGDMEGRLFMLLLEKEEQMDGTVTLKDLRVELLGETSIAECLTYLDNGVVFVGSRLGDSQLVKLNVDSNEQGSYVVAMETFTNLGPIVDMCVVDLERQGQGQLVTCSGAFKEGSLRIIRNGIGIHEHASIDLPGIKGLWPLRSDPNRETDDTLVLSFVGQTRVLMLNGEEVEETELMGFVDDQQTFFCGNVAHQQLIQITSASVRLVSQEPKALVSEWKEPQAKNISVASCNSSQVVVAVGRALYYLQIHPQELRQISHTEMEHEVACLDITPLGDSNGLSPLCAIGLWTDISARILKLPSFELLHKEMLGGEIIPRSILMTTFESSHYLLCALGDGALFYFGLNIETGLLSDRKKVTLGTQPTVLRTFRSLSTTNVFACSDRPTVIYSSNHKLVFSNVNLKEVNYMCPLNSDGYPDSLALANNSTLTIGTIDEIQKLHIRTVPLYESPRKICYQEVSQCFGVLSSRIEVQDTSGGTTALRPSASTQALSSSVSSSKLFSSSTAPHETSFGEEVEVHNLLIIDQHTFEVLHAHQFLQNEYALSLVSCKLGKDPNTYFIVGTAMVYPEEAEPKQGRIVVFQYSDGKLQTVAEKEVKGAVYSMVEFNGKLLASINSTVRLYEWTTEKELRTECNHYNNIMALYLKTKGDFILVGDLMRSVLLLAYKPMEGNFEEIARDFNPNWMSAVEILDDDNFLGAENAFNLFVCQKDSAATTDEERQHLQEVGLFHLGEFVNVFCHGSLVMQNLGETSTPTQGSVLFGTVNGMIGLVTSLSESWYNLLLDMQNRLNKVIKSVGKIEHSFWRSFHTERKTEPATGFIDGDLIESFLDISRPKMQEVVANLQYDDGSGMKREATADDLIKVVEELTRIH

For the compound `CC[C@H](CO)Nc1nc(NCc2ccc(-c3ccccn3)cc2)c2ncn(C(C)C)c2n1` [CR8, reference compound], the “cell cycle analysis (propidium iodide)” value in data set [1] (24h, 50 nM) is on record as “arrest in G2/M phase”; in [1] (24h, 2, 5, and 10 nM) it was “no impact on cell cycle”. Moreover, the 50% inhibitory concentration (IC50) in data set [2] is 62.2 nM; in [3], 40.3 nM; in [4], 10.4 nM; in data set [5], 18.4 nM; in [6] it was 30.6 nM; in data set [7], 25.2 nM. Besides, in data set [8], the “in vitro cytotoxic potency” value is “high nanomolar range”. In addition, in data set [9], the CycK degradation result is given as “no CycK was observed”.
